Patent US20260215418A1, “HYDROCARBON ALCOHOLS AND THEIR DERIVATIVES AS SYNERGISTS IN PESTICIDE ACTIVITY” (priority 2022, published 2026)
Where two headings read alike, the source gives them in different places.

Assays:
Blatta orientalis = settings: Blatta orientalis; for synergizing effect on Azamethiphos: synergist applied with Azamethiphos; for synergizing effect on Cypermethrin: synergist applied with Cypermethrin
Protocol: Method: Contact test on non-porous tile measuring 400 cm^2 at a temperature of 28° C. Test duration: up to 72 hours after exposure of the insect to the insecticidal active substance.
(§1) Three tests were performed in parallel, A, B, and C, as follows: • A) Comparative. 1 ml of Composition 2 was applied to the tile. After waiting for the complete evaporation of the solvent, 10 cockroaches were placed on top of the treated tile, starting the test. • B) According to the invention. 1 ml of Composition 8b was distributed on the tile. After waiting for the complete evaporation of the solvent, 1 ml of Composition 2 was added to the same tile. Subsequently, after waiting for the solvent to evaporate, 10 cockroaches were placed on top of the treated tile, starting the test. • C) According to the invention. 1 ml of Composition 8b was distributed on a tile. After waiting for the complete evaporation of the solvent, 10 cockroaches were placed for 30 minutes on top of the treated tile. At the end of the 30 minutes, the cockroaches were transferred to an untreated area.
Method: Contact test on non-porous tile measuring 400 cm^2 at a temperature of 28° C. Test duration: up to 120 hours after exposure of the insect to the insecticidal active substance.
as §1, with “4a” for “2”, “8d” for “8b”, “After” for “Subsequently, after”
Six tests were performed in parallel, A, B, C, D, E and F, as follows: • A) Comparative. 1 ml of Composition 9b was distributed on the tile. After waiting for the complete evaporation of the solvent, 1 ml of Composition 4a was added to the same tile. Subsequently, after waiting for the solvent to evaporate, 10 cockroaches were placed on top of the treated tile, starting the test. • B) Comparative. 1 ml of Composition 9b was distributed on a tile. After waiting for the complete evaporation of the solvent, 10 cockroaches were placed for 30 minutes on top of the treated tile. At the end of the 30 minutes, the cockroaches were transferred to an untreated area. […] 1 ml of Composition 10b was distributed on the tile. After waiting for the complete evaporation of the solvent, 1 ml of Composition 4a was added to the same tile. Subsequently, after waiting for the solvent to evaporate, 10 cockroaches were placed on top of the treated tile, starting the test. • D) Comparative. 1 ml of Composition 10b was distributed on a tile. After waiting for the complete evaporation of the solvent, 10 cockroaches were placed for 30 minutes on top of the treated tile. At the end of the 30 minutes, the cockroaches were transferred to an untreated area. […] 1 ml of Composition 8d was distributed on the tile. After waiting for the complete evaporation of the solvent, 1 ml of Composition 4a was added to the same tile. Subsequently, after waiting for the solvent to evaporate, 10 cockroaches were placed on top of the treated tile, starting the test. • F) According to the invention. 1 ml of Composition 8d was distributed on a tile. After waiting for the complete evaporation of the solvent, 10 cockroaches were placed for 30 minutes on top of the treated tile. At the end of the 30 minutes, the cockroaches were transferred to an untreated area.

Blatta lateralis = experiment: Contact test on non-porous tile, Blatta lateralis; assay type: in vivo; settings: Blatta lateralis; synergist applied with Imidacloprid
Protocol: 1 ml of Composition 24 was distributed on the tile. […] 1 ml of Composition 20c was distributed on a tile. […] 1 ml of Composition 20d was distributed on a tile.
1 ml of Composition 24 was distributed on the tile. […] 1 ml of Composition 28 was distributed on a tile. […] Each experiment (A-B) was conducted in duplicate.
1 ml of Composition 24 was distributed on the tile. […] 1 ml of Composition 21 was distributed on a tile.
1 ml of Composition 4b was distributed on the tile. […] 1 ml of Composition 31c was distributed on a tile. […] 1 ml of Composition 31d was distributed on a tile. […] 1 ml of Composition 31d was distributed on a tile.
1 ml of Composition 24 was distributed on the tile. […] 1 ml of Composition 35 was distributed on a tile. […] 1 ml of Composition 40b was distributed on a tile. […] 1 ml of Composition 42 was distributed on a tile.

Blattella germanica = experiment: Contact test on non-porous tile, Blattella germanica; assay type: in vivo; settings: Blattella germanica; synergist applied with Imidacloprid
Protocol: 1 ml of Composition 36 was distributed on the tile. […] 1 ml of Composition 37 was distributed on a tile.

## Oleic alcohol [Oleic alcohol 95%]
Blatta orientalis
  synergizing effect on Azamethiphos: fine synergizing effect
  synergizing effect on Cypermethrin: fine synergizing effect
Blatta orientalis; listed as oleic alcohol 95%
  synergizing effect on Cypermethrin: superior to that shown with PBO
Blatta lateralis
  synergizing effect on Imidacloprid: same synergizing effect of PBO
Blattella germanica
  synergizing effect on Imidacloprid: fine synergizing effect

## CCCCCCCCOC(=O)OCCCCCCCC [dioctyl carbonate]
Blatta orientalis
  synergizing effect on Azamethiphos: good synergizing effect
  synergizing effect on Cypermethrin: synergizing effect
Blatta lateralis
  synergizing effect on Imidacloprid: good synergizing effect

## CCCCCCCC/C=C\CCCCCCCCOC(C)=O [Oleyl acetate]
Blatta orientalis
  synergizing effect on Azamethiphos: fine synergizing effect
  synergizing effect on Cypermethrin: excellent-fine synergizing effect
Blatta lateralis
  synergizing effect on Imidacloprid: excellent synergizing effect
